Data published in PubChem BioAssay (NCI).
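Five compound concentrations were applied to cells in 96-well plates for 48 hours; endpoints were derived by simple linear interpolation of the resulting dose-response curve. GI50 = concentration required for 50% inhibition of growth. TGI marks complete inhibition of growth.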 Where a SMILES comes first, the peptide text is derived from it. [ ]: non-standard residue; d: D form. The star is where a group is joined. NMeF = CN[CH](Cc1ccccc1)C(=O)O; NMeV = CN[CH](C(=O)O)C(C)C; Boc = CC(C)(C)OC(=O)*; OBn = c1ccc(CO*)cc1

How the values were obtained:
Assay in all cases: NCI-60 cell line screen, 48 h
COLO 205 colon = test system: COLO 205 colon
SK-MEL-28 melanoma = test system: SK-MEL-28 melanoma
OVCAR-3 ovarian = test system: OVCAR-3 ovarian
MOLT-4 leukemia = test system: MOLT-4 leukemia
786-0 renal = test system: 786-0 renal
DMS 114 small cell lung = test system: DMS 114 small cell lung
DMS 273 small cell lung = test system: DMS 273 small cell lung
SNB-19 CNS = test system: SNB-19 CNS
DU-145 prostate = test system: DU-145 prostate
BT-549 breast = test system: BT-549 breast

SMILES | TGI (COLO 205 colon) [µM] | TGI (SK-MEL-28 melanoma) [µM] | TGI (OVCAR-3 ovarian) [µM] | TGI (MOLT-4 leukemia) [µM] | TGI (786-0 renal) [µM] | TGI (DMS 114 small cell lung) [µM] | TGI (DMS 273 small cell lung) [µM] | TGI (SNB-19 CNS) [µM] | GI50 (COLO 205 colon) [µM] | GI50 (DU-145 prostate) [µM] | TGI (DU-145 prostate) [µM] | GI50 (SK-MEL-28 melanoma) [µM] | GI50 (BT-549 breast) [µM] | TGI (BT-549 breast) [µM] | GI50 (OVCAR-3 ovarian) [µM] | GI50 (MOLT-4 leukemia) [µM] | GI50 (786-0 renal) [µM] | GI50 (SNB-19 CNS) [µM]
COc1cc2c(c3oc(-c4ccc5c(c4)OCO5)c(O)c(=O)c13)CCC(C)(C)O2 | > 100 | > 100 | > 100 | > 100 | > 100 | > 100 | > 100 | > 100 |  |  |  |  |  |  |  |  |  | 
CC1(C)CCc2cc3c(cc2O1)OC(C)(C)C1c2c(ccc4c2CCC(C)(C)O4)OC31 (stereo not drawn) | > 100 |  | > 100 | > 100 | > 100 | > 100 | > 100 |  |  |  |  |  |  |  |  |  |  | 
NNC(=O)CC(=O)Nc1ccccc1F | > 100 | > 100 | > 100 | > 100 | > 100 | > 100 | > 100 | > 100 |  |  |  |  |  |  |  |  |  | 
CCOC(=O)c1c(-c2[nH]c(C(=O)OCc3ccccc3)c(C)c2C(=O)OCC)[nH]c(C(=O)OCc2ccccc2)c1C | > 100 | > 100 | > 100 | > 100 | > 100 | > 100 | > 100 |  |  |  |  |  |  |  |  |  |  | 
CC(C)C(/C=C/c1ccccc1)=N\NC(=O)N/N=C(/C=C/c1ccccc1)C(C)C | 44.3 | > 100 |  | 54.3 | 41.9 | 60.1 | 55.1 | > 100 |  |  |  |  |  |  |  |  |  | 
COc1cc(C2[C@H]3C(=O)N(c4ccc(Cc5ccc(N6C(=O)[C@@H]7ON(c8ccccc8)C(c8cc(OC)c(OC)c(OC)c8)[C@@H]7C6=O)cc5)cc4)C(=O)[C@H]3ON2c2ccccc2)cc(OC)c1OC (stereo partly drawn) | > 100 | > 100 | > 100 | > 100 | > 100 | > 100 | > 100 | > 100 |  |  |  |  |  |  |  |  |  | 
COc1cc(C)c(C(=O)/C=C/c2cc(OC)c(O)c(OC)c2)cc1O | > 100 | 41.4 | 91.1 | > 100 | 39.7 | 72.3 | 70.1 | 44.5 |  |  |  |  |  |  |  |  |  | 
Cc1cn(C2C=CC(=O)C(C)O2)c(=O)[nH]c1=O (stereo not drawn) | 32 | 28.1 | 31.4 | 40.9 | 32.2 |  | 33.7 | 43.9 |  |  |  |  |  |  |  |  |  | 
COc1cc2ccc(CC#N)cc2cc1OC |  | > 100 |  | > 100 | > 100 | > 100 | > 100 | > 100 |  |  |  |  |  |  |  |  |  | 
COc1ccc2oc(-c3ccncc3)cc(=O)c2c1 | > 100 | > 100 | > 100 | > 100 | > 100 | > 100 | > 100 | > 100 |  |  |  |  |  |  |  |  |  | 
CC(C)O/C=C1\C(=O)C2(SCCS2)[C@H]2CCCC[C@@H]12 | 33.4 | > 100 |  | 46.4 | > 100 |  | > 100 | > 100 |  |  |  |  |  |  |  |  |  | 
CSC(=S)N(C)NC(=O)c1cccc(C(=O)NN(C)C(=S)SC)n1 | > 100 | > 100 |  | > 100 | 91.8 | 17 | 54.1 | > 100 |  |  |  |  |  |  |  |  |  | 
CNC1=C(C)C(=O)C(C)=C(C(C)(C)CC(=O)n2cc(F)c(=O)[nH]c2=O)C1=O | > 100 | > 100 | > 100 | > 100 | > 100 | > 100 | > 100 | > 100 |  |  |  |  |  |  |  |  |  | 
CN(C)c1nc(N(C)C)nc(N(C)CN(C)c2nc(N(C)C)nc(N(C)C)n2)n1 | > 100 | > 100 | > 100 | > 100 | 32.9 | > 100 | > 100 | > 100 |  |  |  |  |  |  |  |  |  | 
COc1cc(NCC(C#N)C#N)ccc1N=Nc1ccc([N+](=O)[O-])cc1 | > 100 | > 100 | > 100 | > 100 | > 100 | > 100 | > 100 | > 100 |  |  |  |  |  |  |  |  |  | 
CC1SC2=NC3=C(c4ccccc4C3=O)C(c3ccc(Br)cc3)N2C1=O (stereo not drawn) | > 100 | > 100 | > 100 | > 100 | > 100 | > 100 | > 100 | > 100 |  |  |  |  |  |  |  |  |  | 
c1ccc(Cn2cc3c(c2)-c2oncc2CC3)cc1 | 2.55 | > 100 | 2.21 |  | > 30.8 |  |  | > 100 | 0.467 | 0.977 | 12.8 | 4.27 | 4.31 | 98.2 | 0.457 | 0.394 | 1.86 | 1.27
O=C(Cc1ccccc1)Nc1nnc(CCSCCc2nnc(NC(=O)Cc3ccccc3)s2)s1 | > 100 | > 100 | 49.2 | > 100 | 54.6 |  |  | 33.3 | > 100 | 23.8 | > 100 | 13.2 | 5.18 | 74.8 | 6.16 | 23.8 | 6.11 | 11.2
N#Cc1cc2cc3c4c(c2oc1=O)CCCN4CCC3 | > 100 | > 100 | > 100 | > 100 | > 100 |  |  | > 100 |  |  | > 100 |  |  | > 100 |  |  |  | 
C[C@@H]1CN(Cc2ccc(/C=C/c3n[nH]c4ccc5nc(-c6cn[nH]c6C(F)(F)F)c6c(c5c34)CCCC6)cc2)C[C@H](C)O1 | 12 | 21.2 | 14.6 | 23.2 | 17.5 |  |  | 22.1 | 3.21 | 4.53 | 16.9 | 7.11 | 3.09 | 14.8 | 2.96 | 2.6 | 4.09 | 10.2
COc1ccc(CNc2nc3ccccc3nc2-c2cccs2)cc1OC | > 100 | > 100 | > 100 | > 100 | > 100 |  | > 100 | > 100 |  |  |  |  |  |  |  |  |  | 
O=C1C=C(N2CC2)c2ccccc2C1=O | 3.49 | 3.17 | 3.27 | 5.77 | 3.28 |  |  | 3.35 | 2.01 | 1.34 | 2.66 | 1.77 | 1.4 | 2.73 | 1.77 | 1.99 | 1.83 | 1.83
CC(C)C(NC(=O)OC(C)(C)C)C(=O)N(C)C(Cc1ccccc1)C(=O)N(C)C(C(=O)N(C)C(C(=O)OCc1ccccc1)C(C)C)C(C)C (stereo not drawn) (Boc-V[NMeF][NMeV][NMeV]-OBn; configuration not given here) | > 100 |  | > 100 | > 100 | > 100 | > 100 | > 100 | > 100 |  |  |  |  |  |  |  |  |  | 
